Source: publication PMC12371494, “Discovery of YTHDF2 Ligands by Fragment-Based Design” (ACS Bio & Med Chem Au, 2025)
Several values for one entry are separate records, joined by “and”; a condition that tells them apart may be missing. Identical values can stand only once. Like-named read-outs stand apart in the source and are kept apart here.

Key:
Type in all cases: binding
YTHDC1 = YTHDC1 (Homo sapiens, UniProt Q96MU7); assay: DNA-fluorescence polarization (FP) competition assay, DC1; conditions: for Selectivity DF2 over DC1 (Kd ratio DC1/DF2): FP Kd values
Procedure: (§1) The binding affinity for DC1 could not be evaluated by HTRF because of interference of the compounds with the assay, which has a smaller assay window when performed with DC1 compared to the DF proteins. Thus, the FP assay was used to evaluate binding to DC1 and DC2.
(§2) For fluorescence polarization (FP) experiments, a 5′-fluorescein-labeled m^6A-DNA probe (5′-FAM-[…](m6A)-CTAAGCT-3′) was synthesized by Microsynth AG.
(§3) The final concentration of the fluorescein-labeled DNA was kept constant at 3 nM. For YTHDC2 measurements, the protein concentration was set to 25 nM, while for YTHDF2 measurements, it was set to 10 nM, and for YTHDC1, it was set at 15 nM. The compound concentration was serially diluted to obtain the dose–response curve. The competition experiments were conducted in a final volume of 20 μL in a buffer containing 20 mM Tris–HCl (pH 7.4), 150 mM NaCl, and 0.01% bovine serum albumin (BSA), using a 384-well black flat-bottomed microplate (Corning 3575).
(§4) After incubating the mixture for 1 h, the anisotropy values were measured using a Tecan SPARK plate reader with 485/20 nm excitation and 535/25 nm emission polarization filters, suitable for fluorescein, at 25 °C. To obtain the equilibrium dissociation constant (K d), the IC50 values were first derived by fitting a dose–response curve to the data using nonlinear regression analysis in GraphPad Prism. These IC50 values were then converted to K d by using the Cheng–Prusoff equation: Kd=IC50/1+[L]/Kdprobe
(§5) IC50 is the observed value from FP assay, [L] is the probe concentration used, and K d ^probe is the binding affinity of probe for the target.

YTHDF2 = target: T1, YTHDF2 (Homo sapiens, UniProt Q9Y5A9); assay: DNA-fluorescence polarization (FP) competition assay, DF2
T1 sequence (Q9Y5A9 1-579): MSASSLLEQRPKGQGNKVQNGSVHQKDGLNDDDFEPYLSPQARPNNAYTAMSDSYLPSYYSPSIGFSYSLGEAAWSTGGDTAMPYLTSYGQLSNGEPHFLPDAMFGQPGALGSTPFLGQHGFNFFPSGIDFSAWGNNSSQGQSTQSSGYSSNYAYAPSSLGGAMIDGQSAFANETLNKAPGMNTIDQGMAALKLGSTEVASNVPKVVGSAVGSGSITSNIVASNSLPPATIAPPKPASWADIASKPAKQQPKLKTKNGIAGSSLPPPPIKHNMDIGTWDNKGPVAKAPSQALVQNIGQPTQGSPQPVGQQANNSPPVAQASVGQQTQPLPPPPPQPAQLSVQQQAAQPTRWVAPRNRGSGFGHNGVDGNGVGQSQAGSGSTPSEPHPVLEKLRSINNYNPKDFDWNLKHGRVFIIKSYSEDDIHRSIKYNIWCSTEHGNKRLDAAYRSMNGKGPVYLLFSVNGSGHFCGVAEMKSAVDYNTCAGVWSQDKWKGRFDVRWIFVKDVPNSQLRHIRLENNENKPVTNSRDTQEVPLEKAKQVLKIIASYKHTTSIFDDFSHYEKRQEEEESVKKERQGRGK
Procedure: An FP competition assay was used to further validate the binding of the compounds to DF2. The main difference with respect to a previously published FP assay is the use of an oligo-DNA as competitor ligand (see Materials and Methods section). […] These differences might originate from the varying conditions in the two assays, such as the competitor mRNA (5′-biotin-[…](m6A)-CUAAGCU-3′) in HTRF and DNA (5′-FAM-[…](m6A)-CTAAGCT-3′) in FP, the salt concentration (150 mM NaCl and 100 mM KF in HTRF, and 150 mM NaCl in FP), and the pH (7.5 in HTRF and 7.4 in FP). The FP-based assay was also employed to assess the selectivity against DC1 and DC2 (see Selectivity section).
as §2, §3, §4, §5

YTHDC2 = target: T2, YTHDC2 (Homo sapiens, UniProt Q9H6S0); assay: DNA-fluorescence polarization (FP) competition assay, DC2; conditions: for Kd: Cheng-Prusoff from FP IC50, probe Kd 7 nM, two biological replicates; for Selectivity DF2 over DC2 (Kd ratio DC2/DF2): FP Kd values
T2 construct: YTH domain of YTHDC2 (residues 1285–1424, cloned into the pGEX-6P-1 vector); made in house; host or cells: Rosetta (DE3) cells (E. coli)
T2 sequence (Q9H6S0 1285-1424): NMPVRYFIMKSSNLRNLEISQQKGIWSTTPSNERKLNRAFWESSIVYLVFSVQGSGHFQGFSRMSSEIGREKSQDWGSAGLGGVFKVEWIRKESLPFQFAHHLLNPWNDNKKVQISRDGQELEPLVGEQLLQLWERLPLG
Procedure: as §1
The N-terminally GST-tagged YTH domain of YTHDC2 (residues 1285–1424, cloned into the pGEX-6P-1 vector) was overexpressed in Rosetta (DE3) cells grown overnight at 20 °C following induction with 0.4 mM isopropyl-β-D-thiogalactopyranoside (IPTG) at an OD600 of 0.8. The cells were harvested and resuspended in a lysis buffer containing 100 mM Tris–HCl (pH 8.0) and 500 mM NaCl. After cell lysis, the lysate was clarified by centrifugation at 48,000g for 1 h, and the soluble proteins were loaded onto a column packed with Glutathione Sepharose 4B (GE Healthcare), then eluted with 20 mM reduced glutathione in lysis buffer. Finally, a size-exclusion chromatography step (HiLoad 16/600 Superdex 200 pg column, GE Healthcare) was performed to further purify the protein in 20 mM Tris–HCl (pH 7.4) and 150 mM NaCl.
as §2, §3, §4, §5

[1] = Cheng-Prusoff from FP IC50, probe Kd 5 nM, two biological replicates

| SMILES | Kd (YTHDC1) [µM] | Selectivity DF2 over DC1 (Kd ratio DC1/DF2) (YTHDC1) [fold] | Kd (YTHDF2) [µM] | Kd (YTHDC2) | Selectivity DF2 over DC2 (Kd ratio DC2/DF2) (YTHDC2) | IC50 (YTHDF2; FP IC50 before conversion (Kd = IC50/1.6)) [µM] | Kd (YTHDF2; [1]) [µM] |
| --- | --- | --- | --- | --- | --- | --- | --- |
| COC(=O)c1ccc(-c2csc3[nH]c(=S)[nH]c(=O)c23)cc1 [Compound 17] | 5 |  | 1.2 | 6.3 µM |  |  |  |
| O=C(O)c1ccc(-c2csc3[nH]c(=S)[nH]c(=O)c23)cc1 [Compound 18] | 6.9 |  | 0.61 | 7.7 µM |  |  |  |
| CCOC(=O)c1sc2[nH]c(=S)[nH]c(=O)c2c1C [Compound 21] | 36 |  | 4.4 | 230 µM |  |  |  |
| Cc1c(C(=O)NCc2cccnc2)sc2[nH]c(=S)[nH]c(=O)c12 [Compound 23] | 120 | ~100 | 1.3 | > 400 µM and 450 µM | about 350 fold |  |  |
| Cc1c(C(=O)NCCCC(=O)O)sc2[nH]c(=S)[nH]c(=O)c12 [Compound 25] | 32 |  | 1.3 | 130 µM |  |  |  |
| Cc1c(-c2ccc([N+](=O)[O-])cc2)sc2[nH]c(=S)[nH]c(=O)c12 [Compound 26] | 61 |  | 17 | 35 µM |  |  |  |
| Cc1c(-c2ccc(N)cc2)sc2[nH]c(=S)[nH]c(=O)c12 [Compound 27] | 14 |  | 1.9 | 30 µM |  |  |  |
| O=c1[nH]c(=S)[nH]c2scc(-c3ccc(Br)cc3)c12 [Compound S75] |  |  |  | 37 µM |  |  | 8.8 |
| COc1ccc(-c2csc3[nH]c(=S)[nH]c(=O)c23)cc1 [Compound S76] |  |  |  | 54 µM |  |  | 11 |
| O=c1[nH]c(=S)[nH]c2sc(Cc3ccccc3)cc12 [Compound S85] |  |  |  | 160 µM |  |  | 6.2 |
| O=C(O)c1csc2[nH]c(=S)[nH]c(=O)c12 [Compound S90] |  |  |  | 240 µM |  |  | 10 |

Other lines, results leading:

| Kd (YTHDC1) [µM] | Selectivity DF2 over DC1 (Kd ratio DC1/DF2) (YTHDC1) [fold] | Kd (YTHDF2) [µM] | Kd (YTHDC2) | Selectivity DF2 over DC2 (Kd ratio DC2/DF2) (YTHDC2) | IC50 (YTHDF2; FP IC50 before conversion (Kd = IC50/1.6)) [µM] | Kd (YTHDF2; [1]) [µM] | SMILES |
| --- | --- | --- | --- | --- | --- | --- | --- |
| 32 | ~8 | 3.8 | 88 µM | ~20 fold |  |  | O=c1[nH]c(=S)[nH]c2sccc12 [Compound 14] |
| 27 |  | 1.3 | 40 µM |  | 2 |  | O=c1[nH]c(=S)[nH]c2scc(-c3ccc(O)cc3)c12 [Compound 19] |
| 47 |  | 3.1 | 46 µM |  |  |  | CC(=O)c1sc2[nH]c(=S)[nH]c(=O)c2c1C [Compound 20] |
| 92 |  | 10 | 270 µM |  |  |  | Cc1c(C(=O)NCc2ccccc2)sc2[nH]c(=S)[nH]c(=O)c12 [Compound 22] |
| 24 |  | 2.5 | 41 µM |  |  |  | Cc1c(C(=O)NCc2cccc(C(=O)O)c2)sc2[nH]c(=S)[nH]c(=O)c12 [Compound 24] |
| 40 |  | 1.9 | 18 µM |  |  |  | NC(=O)c1csc2[nH]c(=S)[nH]c(=O)c12 [Compound 31] |
|  |  |  | 240 µM |  |  | 5.6 | O=c1[nH]c(=S)[nH]c2scc(C3CCCCC3)c12 [Compound S77] |
|  |  |  | 450 µM and > 400 µM |  |  | 7.5 | CCOC(=O)c1csc2[nH]c(=S)[nH]c(=O)c12 [Compound S89] |
